Laboratory results from patent US10363229B2, “Methods and compositions for the treatment of cancer” (priority 2009, dated 2019).

System: Mouse breast cancer cells (66Cl-1)
Assay: Effects of methyl sulfone on estrogen receptor-negative breast cancer cells
Type: cell-based
Description: Cloudman S-91 mouse melanoma cells (sub-clone M-3, CCL 53.1; American Type Culture Collection, Rockville, Md.) were grown in RMPI medium supplemented with 10% fetal bovine serum (Invitrogen, Inc) and 5% penicillin-streptomycin (Invitrogen, Inc). Mouse breast cancer cells (66Cl-1; American Type Culture Collection, Rockville, Md.) that are estrogen-receptor negative were grown in DMEM medium supplemented with 10% fetal bovine serum (Invitrogen, Inc) and 5% penicillin/streptomycin (Invitrogen, Inc). Human T-cell leukemic lymphocytes (CEM; American Type Culture Collection, Rockville, Md.) were grown in MEM medium supplemented with 7% fetal calf serum. Cultures were passaged twice a week. […]
Cells were plated onto sterile 12 mm coverslips in 35 mm tissue culture plates and incubated at 37° C., 5% CO2. After 24 hours, 2% methyl sulfone in medium or medium alone was added the plates and incubated at 37° C., 5% CO2 for 48 and 72 hrs. BrdU (Molecular Probes, Eugene, Oreg., USA; diluted ⅓ in RPMI medium) was added to each plate for 60 minutes at 37° C., 5% CO2. Coverslips were transferred to porcelain holders, washed with PBS, fixed in methanol/acetone (1:1), washed with PBS, and incubated in 5% BSA/PBS for 30 minutes at room temperature. To denature DNA, coverslips were placed in 0.1N HCL/1% Triton X-100 for 10 minutes at room temperature. After washing in PBS, cells were incubated with Alexa Fluor 488 anti-BrdU antibody (Molecular Probes, Eugene, Oreg.; diluted 1/20 in 5% BSA/PBS) for 60 minutes at room temperature. Cells were washed in PBS and incubated with Hoechst (diluted 1/1000 in PBS) in the dark at room temperature. After washing in PBS, cells were dipped in dH2O and drained onto Kim Wipes. SlowFade mounting medium (Molecular Probes, Eugene, Oreg.) was added to a glass slide and coverslips were placed face down onto slides and sealed with clear nail polish. Cells were viewed at the Center for Cell Analysis and Modeling, University of Connecticut Health Center, Farmington, Conn., with an Axioplan CCD Microscope equipped with a 40×1.3 NA FL objective lens, equipped with a Photometrics PXL-EEV37 high speed digital cooled CCD camera. Molecular Devices Metamorph was used for image acquisition.
Cells were plated on 8-35 mm plates that contained base agar with and without 2% methyl sulfone. To make base agar, 1% agar (DNA grade; Difco Bacto Agar; Becton Dickenson and Company, Sparks, Md.), was mixed in water at room temperature, melted in a microwave, and cooled to 40° C. before using. For drug plates, 1% agar was combined (1:1) with 4% methyl sulfone in 2×RPMI medium with sodium bicarbonate supplemented with 10% FBS and 5% penicillin/streptomycin. For control plates, 1% agar was combined (1:1) with 2×RMPI medium. Agar +/−2% methyl sulfone was added to appropriate 35 mm tissue culture plates and stored overnight at 4° C. The next day top agar and cells were placed on top of the base agar. Top agar was made with 0.66% agar in water. The agar was melted in a microwave, cooled, and stored at 40° C. 2×RPMI medium and 4% methyl sulfone was also stored at 40° C. Cells were trypsinized and counted for a final concentration of 5×10^3 cells/plate. Cell counts were adjusted to 2×10^5 cells/ml and 0.05 ml of the cell suspension was added to 15 ml centrifuge tubes (2 each). Base agar plates were removed from 4° C. and allowed to warm to room temperature for approximately 30 minutes prior to plating. For plating control cells, 2×RPMI medium and 0.66% agar were added to the tube of cell suspension, gently mixed, and placed on top of control base agar plates. For plating cells in 2% methyl sulfone, 4% methyl sulfone (in 2×RMPI medium) and 0.66% agar was added to the tube of cell suspension, mixed gently, and placed on top of the drug base agar plates. Cells were incubated in the 37° C., 5% CO2 incubator for 10-14 days. Plates were stained with 0.005% crystal violet for 1 hour. Colonies were photographed and counted with a dissecting microscope. […]

Substance: methyl sulfone
- DNA synthesis (2% methyl sulfone): markedly reduced
- cell growth anchorage dependence (2% methyl sulfone): anchorage-dependent
- contact inhibition (2% methyl sulfone): contact inhibited
- migration of cells through an extracellular matrix (2% methyl sulfone): inhibited
- mitochondrial activity (2% methyl sulfone): decreased
- senescence (2% methyl sulfone): became senescent
- wound healing (2% methyl sulfone): proceeded normally
- methyl sulfone concentration inducing apoptosis in breast cancer cells (breast cancer cells): above 2%
